{
  "source": "patent US20110182871A1",
  "about": "“NOVEL MICROORGANISM AND PLANT DISEASE CONTROL AGENT USING THE MICROORAGNISM” (UNIVERSITY OF YAMANASHI, priority 2008, published 2011)",
  "key": {"[1]": {"system": "Bacillus subtilis strain KS1", "assay": "Drug resistance test: growth of strain KS1 on YBS medium containing a chemical pesticide", "format": "cell-based", "conditions": "37° C., 2 days", "protocol": "(§1) In this example, a test for resistance of Bacillus subtilis strain KS1 to chemical pesticides was performed. First, the YBS medium (one containing yeast extract and meat extract in agar) containing the chemical pesticide of interest was prepared in a petri dish. The concentration (ppm) of the chemical pesticide at this time was the same as a general application concentration. Next, Bacillus subtilis strain KS1 was smeared on the surface of the above-mentioned medium containing the chemical pesticide and incubated at 37° C. for 2 days. As a control area, a test for resistance of Bacillus subtilis isolated from a Botokiller water dispersible powder to chemical pesticides was performed in parallel. In this case, the suspension of the Botokiller water dispersible powder was spread on the YBS medium and the bacteria that appeared after overnight incubation at 37° C. were considered as the bacteria constituting a Botokiller water dispersible powder. In the resistance test, the bacteria constituting a Botokiller water dispersible powder were smeared on the surface of the medium containing a chemical pesticide and incubated at 37° C. for 2 days, as is the case with the above-mentioned Bacillus subtilis strain KS1. […]"}, "[2]": {"system": "B. subtilis used in a Botokiller water dispersible powder", "assay": "Drug resistance test: growth of the bacteria constituting a Botokiller water dispersible powder on YBS medium containing a chemical pesticide", "format": "cell-based, Bacillus subtilis", "conditions": "37° C., 2 days", "protocol": "as §1"}},
  "data": [
    {"smiles": "S=C([S-])NCCNC(=S)[S-].[Mn+2]", "note": "[Maneb]", "values": [
      {"measurement": "Resistance of Bacillus subtilis strain KS1 to the chemical pesticide (in words)", "setting": "[1]", "value": "showed resistance"},
      {"measurement": "Resistance of the bacteria constituting a Botokiller water dispersible powder to the chemical pesticide (in words)", "setting": "[2]", "value": "showed no resistance"}
    ]}
  ]
}
